Measurements from US20150152083A1, “Compounds and Compositions for Modulating EGFR Activity” (IRM LLC, A Delaware Limited Liability Company, priority 2012, published 2015).

Legend:
EGFR (WT) = target: T1, EGFR (WT) (Homo sapiens, UniProt P00533); experiment: EGFR target modulation in engineered NIH3T3 cell lines (phospho-EGFR AlphaLISA); type: cell-based; details: NIH3T3 cells expressing human EGFR WT; 3 hours compound; induced with 50 ng/ml EGF
T1 construct: host or cells: NIH3T3
Experimental: (§1) EGFR Target Modulation in Engineered NIH3T3 Cell Lines
(§2) NIH3T3 cell lines expressing human EGFR (WT, L858R, and L858RT790M) (obtained from Matthew Meyerson's Lab at DFCI) were maintained in 10% FBS/DMEM supplemented with 100 μg/ml Penicillin/Streptomycin (Hyclone #SV30010) and 2 μg/ml Puromycin. The cells were harvested with 0.05% Trypsin/EDTA (Hyclone #SH30236.01), re-suspended in 5% FBS/DMEM Pen/Strep without Puromycin and plated at 9,000 cells per well in 50 μl of media in a 384-well black plate with clear bottoms (Greiner #789068G). The cells were allowed to incubate overnight in a 37° C., 5% CO2 humidified tissue culture incubator. A 12-point test compound curve was prepared by serial diluting a 10 μM stock 1:3 in DMSO in a 384-well compound plate (Greiner #789201L). The serial diluted compounds were transferred to the plate containing cells by using a 50 nl Pin Head device (Perkin Elmer) and the cells were placed back in the incubator for 3 hours. Only the EGFR WT-expressing cells were induced with 50 ng/ml EGF (Preprotech #AF-100-15) for 5 minutes before lysis. The media was removed and cells were lysed in 25 μl of Lysis buffer containing protease and phosphatase inhibitors (1% Triton X-100, 20 mM Tris, pH 7.5, 1 mM EDTA, 1 mM EGTA, 150 mM NaCl, 1× complete cocktail inhibitor (Roche #11 697 498 001), 1× Phosphatase Inhibitor Cocktail Set II and Set III (Sigma #P5726 and #P0044)). The plates were shaken at 4° C. for 5 minutes with foil top at maximum speed. An aliquot of 5 μl from each well was transferred to ProxiPlate™ 384-well Plus plates (PE #6008289). The plates were sealed with a foil top and frozen at −80° C. and thawed when needed.
(§3) The frozen aliquots were thawed and briefly centrifuged. All antibodies and beads were diluted in 1× AlphaLISA HiBlock Buffer (PE #AL004C). Biotinylated anti-phospho-EGFR (Y1068) (Cell Signaling #4031) was incubated with the lysate for 1 hour at room temperature at 1 nM final concentration. Goat anti-total EGFR (R&D Systems #AF231) was added and allowed to equilibrate for 1 hour at room temperature at 1 nM final concentration. Then, 10 μl of mixed beads (AlphaScreen Streptavidin Donor Beads (PE #6760002S) and AlphaLISA anti-goat IgG Acceptor Beads (PE #AL107C)) was equilibrated for 1.5 hours before reading on EnVision plate reader using the built-in settings for AlphaScreen.
(§4) Cells untreated (L858R and L858RT790M) or EGF-induced (WT) were set to 100% maximum response. For a negative control, 10 μM HKI-272 was used to normalize data to 0% of maximum response. With these parameters, the IC50's for each compound in each cell line was calculated using non-linear curve fitting analysis.

EGFR (L858R) = target: T2, EGFR (L858R) (Homo sapiens, UniProt P00533, L858R); experiment: as above; type: cell-based; details: NIH3T3 cells expressing human EGFR L858R; 3 hours compound
T2 construct: host or cells: NIH3T3
T2 sequence (P00533 25-1210 L858R): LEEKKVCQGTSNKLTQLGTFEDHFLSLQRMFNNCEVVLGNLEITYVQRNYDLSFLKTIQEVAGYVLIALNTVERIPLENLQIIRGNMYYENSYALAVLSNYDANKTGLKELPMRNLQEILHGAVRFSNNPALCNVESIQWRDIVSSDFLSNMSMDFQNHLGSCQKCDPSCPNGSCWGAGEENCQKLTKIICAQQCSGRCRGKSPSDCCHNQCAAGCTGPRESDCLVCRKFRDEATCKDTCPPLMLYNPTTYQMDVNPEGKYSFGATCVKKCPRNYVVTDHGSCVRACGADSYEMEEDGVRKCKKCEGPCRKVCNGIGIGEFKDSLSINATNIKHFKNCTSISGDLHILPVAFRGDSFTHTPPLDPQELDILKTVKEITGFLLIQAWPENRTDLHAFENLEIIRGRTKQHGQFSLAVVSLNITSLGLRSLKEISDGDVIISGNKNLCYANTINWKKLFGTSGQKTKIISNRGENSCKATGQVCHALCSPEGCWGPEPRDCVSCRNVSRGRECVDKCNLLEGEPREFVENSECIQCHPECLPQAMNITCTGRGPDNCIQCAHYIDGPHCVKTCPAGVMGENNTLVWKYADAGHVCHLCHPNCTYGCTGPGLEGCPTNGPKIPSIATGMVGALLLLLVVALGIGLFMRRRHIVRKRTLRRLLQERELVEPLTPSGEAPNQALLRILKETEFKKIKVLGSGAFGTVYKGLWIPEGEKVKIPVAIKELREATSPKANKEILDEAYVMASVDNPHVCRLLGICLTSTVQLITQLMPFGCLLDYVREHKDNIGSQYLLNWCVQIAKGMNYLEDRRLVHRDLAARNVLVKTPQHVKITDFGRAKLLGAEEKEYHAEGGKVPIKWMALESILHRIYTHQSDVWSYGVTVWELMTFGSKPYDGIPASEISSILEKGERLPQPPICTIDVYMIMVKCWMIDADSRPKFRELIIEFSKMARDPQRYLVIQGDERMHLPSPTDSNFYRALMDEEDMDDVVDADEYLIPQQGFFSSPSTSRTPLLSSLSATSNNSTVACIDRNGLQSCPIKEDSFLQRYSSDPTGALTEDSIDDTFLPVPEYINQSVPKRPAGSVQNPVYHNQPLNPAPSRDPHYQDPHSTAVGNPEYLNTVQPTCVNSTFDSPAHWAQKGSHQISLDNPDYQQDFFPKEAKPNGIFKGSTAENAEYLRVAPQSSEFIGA
Experimental: as §1, §2, §3, §4

EGFR(L858R/T790M) [1] = target: T3, EGFR(L858R/T790M) (Homo sapiens, UniProt P00533, L858R/T790M); experiment: EGFR biochemical assay (HTRF), IC50 determination; set-up: purchased from Carna (GST-a.a. 669-1210); purchased Carna; details: 10 μM ATP
Experimental: All EGFR biochemical assays were carried out by HTRF method. The EGFR(L858RT790M) enzyme were purchased from Carna (GST-a.a. 669-1210). The substrate peptide Biotin-TK-peptide was purchased from Cis-Bio. The reaction mixtures contained 1 μM peptide substrate, 10 μM ATP, and 0.036 nM EGFR(L858RT790M) in the reaction buffer (50 mM HEPES pH 7.1, 10 mM MgCl2, 0.01% BSA, 1 mM TCEP and 0.1 mM Na3VO4) at a final volume of 10 μL. All reactions were carried out at room temperature in white ProxiPlate™ 384-well Plus plates (PerkinElmer) and were quenched with 5 μL of 0.2 M EDTA at 60 min Five μL of the detection reagents (2.5 ng PT66K and 0.05 μg SAXL per well) were added, the plates were incubated at room temperature for 1 h and then read in EnVision reader. […] For no-preincubation condition, the compounds were added to the assay solution containing ATP and peptide, and the reaction was initiated by addition of enzyme. For pre-incubation conditions, the compounds were added to the assay solution containing enzyme and peptide, and pre-incubated at room temperature for desired period of time, then the reaction was initiated by addition of ATP.
Target sequence in this assay (P00533 669-1210 T790M/L858R): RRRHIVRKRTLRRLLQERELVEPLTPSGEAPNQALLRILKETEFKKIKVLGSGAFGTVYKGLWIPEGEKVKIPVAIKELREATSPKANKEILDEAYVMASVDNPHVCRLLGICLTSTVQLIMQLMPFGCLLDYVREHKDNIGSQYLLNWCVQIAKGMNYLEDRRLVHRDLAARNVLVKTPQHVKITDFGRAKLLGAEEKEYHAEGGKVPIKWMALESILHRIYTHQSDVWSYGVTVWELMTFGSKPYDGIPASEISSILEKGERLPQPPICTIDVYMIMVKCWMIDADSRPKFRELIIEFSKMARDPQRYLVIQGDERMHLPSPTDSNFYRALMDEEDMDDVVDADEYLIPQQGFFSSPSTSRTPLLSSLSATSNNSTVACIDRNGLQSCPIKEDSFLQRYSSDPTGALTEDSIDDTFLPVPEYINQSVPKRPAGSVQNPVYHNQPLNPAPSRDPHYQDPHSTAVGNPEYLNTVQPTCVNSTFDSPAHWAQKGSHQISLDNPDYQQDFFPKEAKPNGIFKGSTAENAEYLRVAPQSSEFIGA

EGFR(L858R/T790M) [2] = target: T3, EGFR(L858R/T790M); experiment: EGFR target modulation in engineered NIH3T3 cell lines (phospho-EGFR AlphaLISA); type: cell-based; set-up: host or cells: NIH3T3; details: NIH3T3 cells expressing human EGFR L858R/T790M; 3 hours compound
Experimental: as §1, §2, §3, §4
Target sequence in this assay (P00533 25-1210 T790M/L858R): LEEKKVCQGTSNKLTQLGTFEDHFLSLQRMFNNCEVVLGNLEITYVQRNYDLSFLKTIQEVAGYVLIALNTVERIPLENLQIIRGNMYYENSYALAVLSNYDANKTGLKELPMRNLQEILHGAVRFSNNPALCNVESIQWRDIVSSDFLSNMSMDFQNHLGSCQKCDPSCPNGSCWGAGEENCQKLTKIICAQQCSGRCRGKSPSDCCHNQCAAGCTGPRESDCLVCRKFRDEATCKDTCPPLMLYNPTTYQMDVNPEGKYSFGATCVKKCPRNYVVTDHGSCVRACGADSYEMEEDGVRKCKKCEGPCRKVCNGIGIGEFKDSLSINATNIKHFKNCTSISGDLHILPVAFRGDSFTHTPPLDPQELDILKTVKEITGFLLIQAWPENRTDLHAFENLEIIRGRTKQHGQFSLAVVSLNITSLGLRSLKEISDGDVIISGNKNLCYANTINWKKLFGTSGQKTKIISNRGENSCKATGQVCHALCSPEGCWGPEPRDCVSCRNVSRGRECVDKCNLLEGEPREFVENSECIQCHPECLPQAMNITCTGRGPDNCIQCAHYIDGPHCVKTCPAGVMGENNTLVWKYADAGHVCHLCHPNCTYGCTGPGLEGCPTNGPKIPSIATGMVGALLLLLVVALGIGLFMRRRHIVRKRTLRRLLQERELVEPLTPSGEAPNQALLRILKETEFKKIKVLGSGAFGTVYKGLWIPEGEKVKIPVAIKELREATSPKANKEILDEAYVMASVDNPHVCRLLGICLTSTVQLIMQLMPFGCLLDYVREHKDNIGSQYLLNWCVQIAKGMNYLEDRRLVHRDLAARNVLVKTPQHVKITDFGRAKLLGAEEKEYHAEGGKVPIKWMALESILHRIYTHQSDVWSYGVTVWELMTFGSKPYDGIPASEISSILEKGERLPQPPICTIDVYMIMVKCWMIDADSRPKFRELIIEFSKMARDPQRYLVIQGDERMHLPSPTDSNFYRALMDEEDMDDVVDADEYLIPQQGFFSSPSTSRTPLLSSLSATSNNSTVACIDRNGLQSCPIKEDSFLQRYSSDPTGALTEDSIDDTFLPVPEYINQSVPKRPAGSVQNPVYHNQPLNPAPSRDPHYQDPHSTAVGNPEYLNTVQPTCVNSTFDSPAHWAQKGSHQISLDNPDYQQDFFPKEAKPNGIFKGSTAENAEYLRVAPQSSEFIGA

[3] = EGFR (L858R/T790M) IC50 (μM) 90 min pre-incubation, 90 min pre-incubation
[4] = no pre-incubation, read-out: EGFR (L858R/T790M) IC50 (μM) No pre-incubation

T1 sequence (P00533 25-1210): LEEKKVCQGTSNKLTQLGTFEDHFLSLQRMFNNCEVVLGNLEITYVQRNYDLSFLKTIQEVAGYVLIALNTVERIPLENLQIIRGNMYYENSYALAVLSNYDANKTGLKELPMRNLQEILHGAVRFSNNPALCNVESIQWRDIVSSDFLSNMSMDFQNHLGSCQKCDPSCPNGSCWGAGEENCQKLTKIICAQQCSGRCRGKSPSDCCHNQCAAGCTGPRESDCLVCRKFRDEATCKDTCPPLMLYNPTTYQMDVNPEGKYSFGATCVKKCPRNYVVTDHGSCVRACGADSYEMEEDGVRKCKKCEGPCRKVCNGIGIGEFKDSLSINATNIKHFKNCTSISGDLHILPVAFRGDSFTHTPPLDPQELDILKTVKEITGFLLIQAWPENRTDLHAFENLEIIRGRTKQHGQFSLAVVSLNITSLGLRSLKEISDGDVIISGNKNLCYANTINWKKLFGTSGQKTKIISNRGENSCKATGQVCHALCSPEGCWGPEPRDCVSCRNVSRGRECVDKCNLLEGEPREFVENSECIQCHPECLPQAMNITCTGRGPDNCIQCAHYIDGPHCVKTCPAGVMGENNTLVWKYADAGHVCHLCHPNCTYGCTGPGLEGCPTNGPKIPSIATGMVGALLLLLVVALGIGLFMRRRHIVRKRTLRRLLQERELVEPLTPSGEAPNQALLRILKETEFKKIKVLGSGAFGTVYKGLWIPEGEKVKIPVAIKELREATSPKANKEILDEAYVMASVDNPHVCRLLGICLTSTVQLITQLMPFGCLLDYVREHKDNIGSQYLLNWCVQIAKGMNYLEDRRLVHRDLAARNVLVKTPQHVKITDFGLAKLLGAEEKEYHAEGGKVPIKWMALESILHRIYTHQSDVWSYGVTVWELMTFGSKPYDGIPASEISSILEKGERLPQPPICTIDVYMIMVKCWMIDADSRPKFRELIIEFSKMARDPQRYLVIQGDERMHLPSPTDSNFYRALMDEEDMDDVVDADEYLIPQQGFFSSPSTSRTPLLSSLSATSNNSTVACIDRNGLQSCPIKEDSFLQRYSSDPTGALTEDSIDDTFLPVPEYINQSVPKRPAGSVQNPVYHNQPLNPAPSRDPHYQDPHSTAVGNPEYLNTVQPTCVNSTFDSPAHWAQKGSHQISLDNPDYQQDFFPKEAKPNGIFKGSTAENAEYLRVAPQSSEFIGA

| SMILES | IC50 (EGFR (WT)) [µM] | IC50 (EGFR (L858R)) [µM] | IC50 (EGFR(L858R/T790M) [1]; [3]) [µM] | IC50 (EGFR(L858R/T790M) [1]; [4]) [µM] | IC50 (EGFR(L858R/T790M) [2]) [µM] |
| --- | --- | --- | --- | --- | --- |
| C=CC(=O)N[C@@H]1CCC[C@@H](n2c(NC(=O)c3cccc(C(F)(F)F)c3)nc3cc(C)ccc32)C1 (racemic) [Example 8-2, N-{5-methyl-1-[(1S,3S)-3-(prop-2-enamido)cyclohexyl]-1H-1,3-benzodiazol-2-yl}-3-(trifluoromethyl)benzamide] | > 10 | > 3.7 | 0.051 | 0.27 | 0.41 |
| C=CC(=O)Nc1cccc(-n2c(NC(=O)c3ccc(F)cc3)nc3cc(C)ccc32)c1 [Example 1, N-(1-(3-acrylamidophenyl)-5-methyl-1H-benzo[d]imidazol-2-yl)-4-fluorobenzamide] | > 10 | 0.053 | 0.002 | 0.016 | 0.037 |
| C=CC(=O)Nc1cccc(-n2c(NC(=O)c3cccc(F)c3)nc3cc(C)ccc32)c1 [Example 2-1, 3-fluoro-N-{5-methyl-1-[3-(prop-2-enamido)phenyl]-1H-1,3-benzodiazol-2-yl}benzamide] | > 10 | 0.33 | 0.003 | 0.023 | 0.028 |
| C=CC(=O)Nc1cccc(-n2c(NC(=O)c3ccc(F)c(F)c3)nc3cc(C)ccc32)c1 [Example 2-2, 3,4-difluoro-N-{5-methyl-1-[3-(prop-2-enamido)phenyl]-1H-1,3-benzodiazol-2-yl}benzamide] | > 10 | 0.2 | 0.002 | 0.054 | 0.08 |
| C=CC(=O)Nc1cccc(-n2c(NC(=O)c3ccc(C)cc3)nc3cc(C)ccc32)c1 [Example 2-3, 4-methyl-N-{5-methyl-1-[3-(prop-2-enamido)phenyl]-1H-1,3-benzodiazol-2-yl}benzamide] | > 10 | 0.77 | 0.034 | 0.39 | 0.98 |
| C=CC(=O)Nc1cccc(-n2c(NC(=O)c3ccc(Cl)c(Cl)c3)nc3cc(C)ccc32)c1 [Example 2-4, 3,4-dichloro-N-{5-methyl-1-[3-(prop-2-enamido)phenyl]-1H-1,3-benzodiazol-2-yl}benzamide] | > 10 | 0.33 | 0.023 | 0.27 | 0.22 |
| C=CC(=O)Nc1cccc(-n2c(NC(=O)c3cccc(C)c3)nc3cc(C)ccc32)c1 [Example 2-5, 3-methyl-N-{5-methyl-1-[3-(prop-2-enamido)phenyl]-1H-1,3-benzodiazol-2-yl}benzamide] | > 10 | 1.3 | 0.012 | 0.14 | 0.17 |
| C=CC(=O)Nc1cccc(-n2c(NC(=O)c3cccc(Oc4ccccc4)c3)nc3cc(C)ccc32)c1 [Example 2-6, N-{5-methyl-1-[3-(prop-2-enamido)phenyl]-1H-1,3-benzodiazol-2-yl}-3-phenoxybenzamide] | > 10 | 0.27 | < 0.001 | 0.021 | 0.062 |
